Values quoted from earlier work, collected in patent US20050064563A1, “Nucleic acids for aminocoumarin biosynthesis” (priority 2001, published 2005).

Target: intact gyrase (bacterial DNA gyrase) (Escherichia coli, UniProt P0AES6)
Conditions: intact gyrase heterotetramer; Peng et al. (1993) J. Biol. Chem. 268: 24481-24490; read-out: concentration achieving 50% inhibition of gyrase

## CO[C@H]1[C@H](OC(=O)c2ccc(C)[nH]2)[C@H](O)[C@@H](Oc2ccc3c(O)c(NC(=O)c4c[nH]c(C(=O)Nc5c(O)c6ccc(O[C@H]7OC(C)(C)[C@@H](OC)[C@H](OC(=O)c8ccc(C)[nH]8)[C@@H]7O)c(C)c6oc5=O)c4C)c(=O)oc3c2C)OC1(C)C [coumermycin A1]
  IC50: 4 nM
